Data on two molecules can be found in US9624179B1, “Quinazoline derivative Lu1501 and preparing method and application thereof” (NANJING GENERAL HOSPITAL OF NANJING MILITARY REGION OF PLA, priority 2015, dated 2017).

What all share (type): cell-based
Experiment [1] relates to SK-BR-3 (human breast cancer cell). The experiment in a line: MTT inhibition of proliferation, SK-BR-3. Conditions: SK-BR-3, MTT, 48 h, read-out: Inhibitory Activity on the Proliferation of Tumor Cells (IC50 ± SD) SK-BR-3. Here is the method: (§1) The compound 8 of the invention was prepared into required concentrations using a culture medium containing 0.1% DMSO.
(§2) The seven tumor cells including MCF-7 (human breast cancer cell, ATCC:HTB-22), SK-BR-3 (human breast cancer cell, ATCC:HTB-30), A549 (human non-small cell lung cancer cell, ATCC:CRM-CCL-185), HCT116 (human colon cancer cell, ATCC:CCL-247), U-118 MG (human astrocytoma, ATCC:HTB-15), U-87 MG (human astrocytoma, ATCC:HTB-14), MDA-MB-468 (human breast cancer cell, ATCC:HTB-132) were all purchased from American Type Culture Collection (ATCC). […]
(§3) MCF-7, SK-BR-3, A549, HCT 116, U-118 MG U-87 MG and MDA-MB-468 cells in logarithmic phase with excellent growth conditions were grafted into a 96-well plate according to a density of 1×10^4 cells/mL, wherein each well was grafted 100 μl. […] A supernate was absorbed out carefully, 150 μl DMSO was added into each hole to dissolve purple residue (formazan), flatly oscillated for 10 min to completely dissolve deposits, then O.D. value (absorbancy) was measured on a microplate reader, wherein the wavelength was 570 nm. […]
(§4) The test was repeated for thrice. A diagram was made by plotting the inhibition rate against the concentration of the compound, and the IC50 (half effective inhibitive concentration) value of the compound 8 of the invention was calculated. […]

In experiment [2] the test system is U-87 MG (human astrocytoma). The experiment in a line: MTT inhibition of proliferation, U-87 MG. The conditions noted are these: 48 h, read-out: Inhibitory Activity on the Proliferation of Tumor Cells (IC50 ± SD) U-87 MG. The procedure: as §1, §2, §3, §4
In experiment [3] the test system is MDA-MB-468 (human breast cancer cell). The experiment in a line: MTT inhibition of proliferation, MDA-MB-468. Conditions: MDA-MB-468, MTT, 48 h, read-out: Inhibitory Activity on the Proliferation of Tumor Cells (IC50 ± SD) MDA-MB-468. The procedure:
as §1, §2, §3, §4

In experiment [4] the test system is U-118 MG (human astrocytoma). As to the kind of experiment: MTT inhibition of proliferation, U-118 MG. The conditions noted are these: 48 h, read-out: Inhibitory Activity on the Proliferation of Tumor Cells (IC50 ± SD) U-118 MG. Here is the method:
as §1, §2, §3, §4

The subject of experiment [5] is A549 (human non-small cell lung cancer cell). As to the kind of experiment: MTT inhibition of proliferation, A549. Conditions: 48 h, read-out: Inhibitory Activity on the Proliferation of Tumor Cells (IC50 ± SD) A549. Here is the method: as §1, §2, §3, §4
Experiment [6] relates to MCF-7 (human breast cancer cell). As to the kind of experiment: MTT inhibition of proliferation, MCF-7. Conditions: MCF7, MCF-7, MTT, 48 h, read-out: Inhibitory Activity on the Proliferation of Tumor Cells (IC50 ± SD) MCF-7. Here is the method: as §1, §2, §3, §4
For experiment [7], the system named is HCT116 (human colon cancer cell). As to the kind of experiment: MTT inhibition of proliferation, HCT 116. The conditions noted are these: HCT 116, MTT, 48 h, read-out: Inhibitory Activity on the Proliferation of Tumor Cells (IC50 ± SD) HCT 116. Here is the method:
as §1, §2, §3, §4

Where two headings read alike, the source gives them in different places.

`COc1cccc2c1C(=O)c1c(O)c3c(c(O)c1C2=O)C[C@@](O)(C(=O)CO)C[C@@H]3O[C@H]1C[C@H](N)[C@H](O)[C@H](C)O1` [ADR, Adriamycin amycin, reference compound]: the IC50 in experiment [1] was 4.65 ± 0.02 µM; in experiment [2], 82.5 ± 7.15 µM; in experiment [3], 2.45 ± 0.31 µM; in experiment [4] it was 13.5 ± 1.75 µM.
On to `COc1cc2ncnc(Nc3ccc(NCc4ccc(F)cc4)cc3)c2cc1OCCN1CCCC1` [Compound 8, N-[(4-fluorophenyl)methyl]-4-N-{7-methoxy-6-[(2-pyrrolidin-1-yl)hydroxyethyl]quinazolin-4-yl}phen-1,4-diamine], for which the IC50 in experiment [1] (Homo sapiens) was 10.2 ± 0.86 µM; in experiment [5], 5.66 ± 1.01 µM; in experiment [2] (Homo sapiens), 5.45 ± 0.61 µM; in experiment [3] (Homo sapiens), 19.4 ± 1.33 µM; in experiment [6] it was 16.1 ± 3.47 µM; in experiment [4] (Homo sapiens), 24.5 ± 2.68 µM. The IC50 in experiment [7] came out at 2.9 ± 1.02 µM.
